Reference: US20080234188A1, “Antimicrobial Peptides” (The Hospital for Sick Children, priority 2001, published 2008)
Converted amounts (≈) assume the structure as drawn. Where a SMILES comes first, the peptide text is derived from it. [ ]: non-standard residue; d: D form.

What was measured:
[1] = test system: Staphylococcus epidermidis (C621); type: cell-based; settings: C621
Summary of the method: (§1)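 Broth microdilution in Mueller Hinton Broth, inoculum 2−7×10^5 CFU/ml. Peptides serially doubled in 0.01% acetic acid, 0.2% BSA and added at 10× final concentration. Incubation 37° C for 18-24 h, rechecked at 40-48 h; growth read visually and at 600 nm.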

E. coli UB1005 = type: cell-based, Escherichia coli; settings: UB1005
Summary of the method: (§2)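 Broth microdilution MIC in Mueller Hinton broth, 2−7×10^5 CFU/ml inoculum from overnight cultures. Peptides serially doubled in 0.01% acetic acid, 0.2% BSA at 10× test concentration. Incubation 37° C for 18-24 h, rechecked at 40-48 h; growth read visually and at 600 nm.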

E. coli ATCC25922 = type: cell-based
From the text: (§3) The bacterial strains used were E. coli C498, E. coli C500, Escherichia coli UB1005 and its antibiotic supersusceptible derivative DC2 (22); a clinical isolate of Staphylococcus epidermidis (C621); coryneform bacterial strain Corynebacterium xerosis (C875); and E. coli ATCC 25922, Staphylococcus aureus ATCC 25923, Enterococcus faecalis ATCC 29212, Bacillus subtilis ATCC 6633 and Pseudomonas aeruginosa ATCC 27853, all from American Type Culture Collection.
(§4) Peptide antibacterial activity was assessed by the method of R. Hancock et al. (Wu & Hancock (1999), J. Biol. Chem., v. 274, pp. 29-35). Test strains of bacteria from Mueller Hinton agar (MHA) plates were inoculated into 5 ml Mueller Hinton Broth (MHB) in tubes and grown overnight at 37° C. on a shaker (180 rpm). Serial dilutions of test peptides (at 10 times the required test concentrations) were made in 0.01% acetic acid, 0.2% BSA, in polypropylene or coated glass tubes as follows: the test peptide was (a) dissolved in distilled water at 20 times the required maximum concentration (enough final volume for all tests to be performed on a given day); (b) diluted into an equal volume of 0.02% acetic acid, 0.4% BSA to give 10 times the required maximum concentration; (c) serial doubling dilutions were performed in 0.01% acetic acid, 0.2% BSA to provide serial dilutions of peptides at 10 times the required test concentrations, e.g., 640, 320, 160, . . . 2.5 μg/ml. (No deleterious effects of long-term storage of peptides in these media have been detected). Overnight bacterial cultures were diluted in MHB to give 2−7×10^5 colony forming units/ml. Bacterial suspension (100 μl) was dispensed in each well; controls without bacteria were maintained in parallel. To each well was added 11 μl of 10× test peptide and plates were incubated at 37° C. for 18-24 hours, and checked again at 40-48 hours. Plates were read visually and at 600 nm in a microplate reader (Molecular Devices).
(§5) A further number of the peptides of the invention were tested for antimicrobial activity against a range of Gram-positive and Gram-negative bacteria by the assay described immediately before Example 1.

P. aeruginosa ATCC27853 = type: cell-based, Pseudomonas aeruginosa
From the text: as §3, §4, §5

S. aureus ATCC25923 = type: cell-based, Staphylococcus aureus
From the text: as §3, §4, §5

E. faecalis ATCC29212 = type: cell-based, Enterococcus faecalis
From the text: as §3, §4, §5

B. subtilis ATCC6633 = type: cell-based, Bacillus subtilis
From the text: as §3, §4, §5

Human RBC = type: cell-based
Procedure: (§6) Erythrocytes from heparinized rabbit or human blood were washed three times with phosphate-buffered saline (PBS; 5 mM phosphate buffer, 0.14 M saline, pH 7.3), and centrifuged at 1000×g for 15 min at 4° C. The erythrocytes were diluted with PBS to 4% (v/v). Dilutions of the peptides in PBS were plated in 100 μl volumes in microtitre plates (Costar 3790, polypropylene) together with 100μl of the erythrocyte suspension. PBS was used as control and 100% lysis was determined in 0.1% Triton X-100. The plates were incubated at 37° C. for 1 h and then centrifuged at 1000×g for 5 min. 100 μl aliquots of the supernatant were transferred to microtitre plates (Nunc, polystyrene), and the release of hemoglobin was monitored by measurement of the absorbance at 540 nm in a microplate reader. The results are shown in Table 6, for peptide concentrations of […]. With only one or two exceptions, little or no hemolysis was seen.

Rabbit RBC = type: cell-based
Procedure: as §6

[2] = test system: Corynebacterium xerosis (C875); type: cell-based
Summary of the method: as §1

E. coli DC2 = test: Assay of antibacterial activity (MIC), E. coli DC2; type: cell-based, Escherichia coli; settings: Table 5A
Summary of the method: as §2

| Compound | MIC S. aureus ATCC25923 (S. aureus ATCC25923) [µM] | MIC E. faecalis ATCC29212 (E. faecalis ATCC29212) [µM] | MIC B. subtilis ATCC6633 (B. subtilis ATCC6633) [µM] | Rabbit RBC (% lysis) 50 μM (Rabbit RBC) [% lysis] | Rabbit RBC (% lysis) 200 μM (Rabbit RBC) [% lysis] | MIC S. epidermidis C621 [1] [µM] | MIC E. coli UB1005 (E. coli UB1005) [µM] | MIC E. coli ATCC25922 (E. coli ATCC25922) [µM] | MIC P. aeruginosa ATCC27853 (P. aeruginosa ATCC27853) [µM] | Human RBC (% lysis) 50 μM (Human RBC) [% lysis] | Human RBC (% lysis) 200 μM (Human RBC) [% lysis] | MIC C. xerosis C875 [2] [µM] | MIC E. coli DC2 (E. coli DC2) [µM] |
| --- | --- | --- | --- | --- | --- | --- | --- | --- | --- | --- | --- | --- | --- |
| C[C@H](NC(=O)[C@H](C)NC(=O)[C@H](C)NC(=O)[C@H](Cc1c[nH]c2ccccc12)NC(=O)[C@H](Cc1ccccc1)NC(=O)[C@H](C)NC(=O)[C@H](C)NC(=O)[C@H](C)NC(=O)[C@H](C)NC(=O)[C@H](CCCCN)NC(=O)[C@H](CCCCN)NC(=O)[C@H](CCCCN)NC(=O)[C@H](CCCCN)NC(=O)[C@H](CCCCN)NC(=O)[C@@H](N)CCCCN)C(=O)N[C@@H](C)C(=O)N[C@@H](Cc1ccccc1)C(N)=O [KAFW, KKKKKKAAAAFWAAAAF-NH2] (H-KKKKKKAAAAFWAAAAF-NH2; N-terminus assumed) |  |  |  | 0 | 1 | 8 (≈ 14.7 µg/mL) | 2 (≈ 3.67 µg/mL) | 16 (≈ 29.4 µg/mL) | 16 (≈ 29.4 µg/mL) | 0 | 0 | 0.5 (≈ 0.918 µg/mL) | 0.5 (≈ 0.918 µg/mL) |
| C[C@H](NC(=O)[C@H](C)NC(=O)[C@H](Cc1ccccc1)NC(=O)[C@H](C)NC(=O)[C@H](C)NC(=O)[C@H](Cc1c[nH]c2ccccc12)NC(=O)[C@H](C)NC(=O)[C@H](C)NC(=O)[C@H](Cc1ccccc1)NC(=O)[C@H](C)NC(=O)[C@H](C)NC(=O)[C@H](CCCNC(=N)N)NC(=O)[C@H](CCCNC(=N)N)NC(=O)[C@H](CCCNC(=N)N)NC(=O)[C@H](CCCNC(=N)N)NC(=O)[C@H](CCCNC(=N)N)NC(=O)[C@@H](N)CCCNC(=N)N)C(N)=O [Peptide F17-6R, RRRRRRAAFAAWAAFAA-NH2] (H-RRRRRRAAFAAWAAFAA-NH2; N-terminus assumed) |  |  |  | 1 | 3 | 4 (≈ 8.01 µg/mL) | 1 (≈ 2 µg/mL) | 4 (≈ 8.01 µg/mL) | 8 (≈ 16 µg/mL) | 14 | 26 | 0.5 (≈ 1 µg/mL) | 0.5 (≈ 1 µg/mL) |
| C[C@H](NC(=O)[C@H](C)NC(=O)[C@H](C)NC(=O)[C@H](Cc1ccccc1)NC(=O)[C@H](C)NC(=O)[C@H](C)NC(=O)[C@H](Cc1c[nH]c2ccccc12)NC(=O)[C@H](C)NC(=O)[C@H](C)NC(=O)[C@H](Cc1ccccc1)NC(=O)[C@H](C)NC(=O)[C@H](C)NC(=O)[C@H](C)NC(=O)[C@H](C)NC(=O)[C@H](C)NC(=O)[C@H](Cc1ccccc1)NC(=O)[C@H](C)NC(=O)[C@H](C)NC(=O)[C@H](C)NC(=O)[C@H](CCCCN)NC(=O)[C@H](CCCCN)NC(=O)[C@H](CCCCN)NC(=O)[C@H](CCCCN)NC(=O)[C@H](CCCCN)NC(=O)[C@@H](N)CCCCN)C(N)=O [Peptide F25-6K] (H-KKKKKKAAAFAAAAAFAAWAAFAAA-NH2; N-terminus assumed) |  |  |  |  |  | 4 (≈ 9.92 µg/mL) | 16 (≈ 39.7 µg/mL) | 16 (≈ 39.7 µg/mL) | 32 (≈ 79.4 µg/mL) | 11 | 17 | 1 (≈ 2.48 µg/mL) | 8 (≈ 19.8 µg/mL) |

Second part, led by results:

| MIC S. aureus ATCC25923 (S. aureus ATCC25923) [µM] | MIC E. faecalis ATCC29212 (E. faecalis ATCC29212) [µM] | MIC B. subtilis ATCC6633 (B. subtilis ATCC6633) [µM] | Rabbit RBC (% lysis) 50 μM (Rabbit RBC) [% lysis] | Rabbit RBC (% lysis) 200 μM (Rabbit RBC) [% lysis] | Compound | MIC S. epidermidis C621 [1] [µM] | MIC E. coli UB1005 (E. coli UB1005) [µM] | MIC E. coli ATCC25922 (E. coli ATCC25922) [µM] | MIC P. aeruginosa ATCC27853 (P. aeruginosa ATCC27853) [µM] | Human RBC (% lysis) 50 μM (Human RBC) [% lysis] | Human RBC (% lysis) 200 μM (Human RBC) [% lysis] | MIC C. xerosis C875 [2] [µM] | MIC E. coli DC2 (E. coli DC2) [µM] |
| --- | --- | --- | --- | --- | --- | --- | --- | --- | --- | --- | --- | --- | --- |
| 32 (≈ 58.7 µg/mL) | >32 | 4 (≈ 7.34 µg/mL) | 0 | 2 | C[C@@H](NC(=O)[C@@H](C)NC(=O)[C@@H](Cc1ccccc1)NC(=O)[C@@H](C)NC(=O)[C@@H](C)NC(=O)[C@@H](Cc1c[nH]c2ccccc12)NC(=O)[C@@H](C)NC(=O)[C@@H](C)NC(=O)[C@@H](Cc1ccccc1)NC(=O)[C@@H](C)NC(=O)[C@@H](C)NC(=O)[C@@H](CCCCN)NC(=O)[C@@H](CCCCN)NC(=O)[C@@H](CCCCN)NC(=O)[C@@H](CCCCN)NC(=O)[C@@H](CCCCN)NC(=O)[C@H](N)CCCCN)C(N)=O [A11-D F17-6K, kkkkkkaafaawaafaa-NH2] (H-[dK][dK][dK][dK][dK][dK][dA][dA][dF][dA][dA][dW][dA][dA][dF][dA][dA]-NH2) | 4 (≈ 7.34 µg/mL) | 0.5 (≈ 0.918 µg/mL) | 2 (≈ 3.67 µg/mL) | 8 (≈ 14.7 µg/mL) | 0 | 0 |  |  |
| >32 | >32 | 16 (≈ 28.7 µg/mL) | 0 | 2 | C[C@H](NC(=O)[C@H](C)NC(=O)[C@H](Cc1ccccc1)NC(=O)[C@H](C)NC(=O)[C@H](C)NC(=O)[C@H](Cc1ccccc1)NC(=O)[C@H](C)NC(=O)[C@H](C)NC(=O)[C@H](Cc1ccccc1)NC(=O)[C@H](C)NC(=O)[C@H](C)NC(=O)[C@H](CCCCN)NC(=O)[C@H](CCCCN)NC(=O)[C@H](CCCCN)NC(=O)[C@H](CCCCN)NC(=O)[C@H](CCCCN)NC(=O)[C@@H](N)CCCCN)C(N)=O [Peptide 3F17-6K, KKKKKKAAFAAFAAFAA-NH2] (H-KKKKKKAAFAAFAAFAA-NH2; N-terminus assumed) | 8 (≈ 14.4 µg/mL) | 2 (≈ 3.59 µg/mL) | 16 (≈ 28.7 µg/mL) | 16 (≈ 28.7 µg/mL) | 0 | 0 |  |  |
| 32 (≈ 61.2 µg/mL) | >32 | 4 (≈ 7.65 µg/mL) | 0 | 2 | C[C@H](NC(=O)[C@H](C)NC(=O)[C@H](Cc1c[nH]c2ccccc12)NC(=O)[C@H](C)NC(=O)[C@H](C)NC(=O)[C@H](Cc1c[nH]c2ccccc12)NC(=O)[C@H](C)NC(=O)[C@H](C)NC(=O)[C@H](Cc1c[nH]c2ccccc12)NC(=O)[C@H](C)NC(=O)[C@H](C)NC(=O)[C@H](CCCCN)NC(=O)[C@H](CCCCN)NC(=O)[C@H](CCCCN)NC(=O)[C@H](CCCCN)NC(=O)[C@H](CCCCN)NC(=O)[C@@H](N)CCCCN)C(N)=O [Peptide W17-6K, KKKKKKAAWAAWAAWAA-NH2] (H-KKKKKKAAWAAWAAWAA-NH2; N-terminus assumed) | 8 (≈ 15.3 µg/mL) | 1 (≈ 1.91 µg/mL) | 8 (≈ 15.3 µg/mL) | 8 (≈ 15.3 µg/mL) | 0 | 0 |  |  |
